Source: ChEMBL document CHEMBL1148682, “Cyclopentane-based human NK1 antagonists. Part 2: development of potent, orally active, water-soluble derivatives” (Bioorg Med Chem Lett, 2006)

Assay: Dissociation constant, pKa of the compound
Format: physicochemical

Work on `C[C@@H](O[C@H]1OCCN(Cc2n[nH]c(=O)[nH]2)[C@H]1c1ccc(F)cc1)c1cc(C(F)(F)F)cc(C(F)(F)F)c1` [APREPITANT] yielded a pKa of less than 3.5.
`CN(CC(N)=O)C1CCC(OCc2cc(C(F)(F)F)cc(C(F)(F)F)c2)C1c1ccccc1` (configuration not stated) gave a pKa of 5.8.
With `CNC(=O)CN(C)[C@@H]1CC[C@H](O[C@H](C)c2cc(C(F)(F)F)cc(C(F)(F)F)c2)[C@H]1c1ccc(F)cc1` the pKa was 5.3.
With `C[C@@H](O[C@H]1CC[C@@H](N(C)CC(N)=O)[C@@H]1c1ccc(F)cc1)c1cc(C(F)(F)F)cc(C(F)(F)F)c1` the pKa was 5.3.
For `NC(=O)CNC1CCC(OCc2cc(C(F)(F)F)cc(C(F)(F)F)c2)C1c1ccccc1` (configuration not stated), the pKa was 6.6.
`C[C@@H](O[C@H]1CC[C@@H](N(C)Cc2n[nH]c(O)n2)[C@@H]1c1ccc(F)cc1)c1cc(C(F)(F)F)cc(C(F)(F)F)c1` gave a pKa of 4.7.
Work on `C[C@@H](O[C@H]1CC[C@@H](N(C)Cc2c[nH]c(O)n2)[C@@H]1c1ccc(F)cc1)c1cc(C(F)(F)F)cc(C(F)(F)F)c1` yielded a pKa of 6.2.
